Test results from US20230278983A1, “INDOLE DERIVATIVES AND USES THEREOF FOR TREATING A CANCER” (Universite Claude Bernard Lyon 1, priority 2020, published 2023).

What was measured:
[1] = system: 786-O cells; experiment: Cell death, IncuCyte propidium iodide live-cell imaging; assay type: cell-based, human
[2] = system: RPTEC cells; experiment: as above; assay type: cell-based; settings: 48 hours, 1 μM AB668 with 5 μM tariquidar (n=5)
[3] = system: MDA-MB231 cells; experiment: as above; assay type: cell-based, human; settings: 48 hours, increasing concentrations
[4] = system: A549 and MDA-MB231 cells; experiment: Immunoblotting of CK2-dependent substrate phosphorylation and apoptosis markers; assay type: cell-based, human; settings: A549 24 hours, MDA-MB231 48 hours
[5] = system: MCF10-A cells (WT and CK2β-depleted); experiment: Cell death, IncuCyte propidium iodide live-cell imaging; assay type: cell-based; settings: n=5
[6] = system: 786-O and RPTEC cells; experiment: Immunoblotting of CK2-dependent substrate phosphorylation and apoptosis markers; assay type: cell-based; settings: 48 hours or 24 hours, increasing concentrations

**Q.** Which results are given for `CC(C)COC(=O)c1[nH]c2ccc(F)cc2c1-c1cn(CC2CCN(CCNS(=O)(=O)c3ccc(CC(C)C)cc3)CC2)nn1` [AB668, Isobutyl 5-fluoro-3-(1-((1-(2-((4-isobutylphenyl)sulfonamido)ethyl)piperidin-4-yl)methyl)-1H-1,2,3-triazol-4-yl)-1H-indole-2-carboxylate]?
**A.** Cell death induction in RCC lines compared to normal cells ([1]; 24 hours, 786-O (VHL+/−) at 1 μM, RPTEC at 10 μM (n=5)): much more efficient in inducing cell death in RCC lines; Sensitivity to compound-mediated cell death, 786-O versus RPTEC or HEK 293 ([1]; 36 hours, increasing concentrations (n=4 to 6)): much more sensitive; Cell death induction compared to CX-4945 and sunitinib ([1]; at 5 and 2.5 μM): much more efficient in inducing cell death; Effect of P-glycoprotein inhibitor tariquidar on compound effect [2]: has not changed the effect of AB668; Sensitivity to compound-mediated cell death, MDA-MB231 versus normal MCF10A [3]: much more sensitive; CK2-dependent substrate phosphorylation and apoptosis (western blot) [4]: inhibit CK2-dependent substrate phosphorylation and induce apoptosis in different cancer cell lines; Cell death in CK2β-depleted versus WT cells [5]: more pronounced in CK2β-depleted cells than in WT cells; CK2-dependent substrate phosphorylation and apoptosis (western blot) [6]: inhibit CK2-dependent substrate phosphorylation in cells and induce apoptosis
